According to PubChem BioAssay (NCI):
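Five concentrations, 48 hours, 96-well plates. Definition used: TGI = concentration required for complete inhibition of growth.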

Assays:
Assay in all cases: NCI tumour cell line growth inhibition, 48 h
MDA-MB-435 = tested on: MDA-MB-435
T-47D breast = tested on: T-47D breast
LOX IMVI melanoma = tested on: LOX IMVI melanoma
HS 578T breast = tested on: HS 578T breast
OVCAR-5 ovarian = tested on: OVCAR-5 ovarian
OVCAR-3 ovarian = tested on: OVCAR-3 ovarian
SNB-75 CNS = tested on: SNB-75 CNS
MDA-N = tested on: MDA-N
HOP-62 NSCLC = tested on: HOP-62 NSCLC
HOP-92 NSCLC = tested on: HOP-92 NSCLC
OVCAR-4 ovarian = tested on: OVCAR-4 ovarian
UACC-257 melanoma = tested on: UACC-257 melanoma
HCT-116 colon = tested on: HCT-116 colon
RPMI-8226 leukemia = tested on: RPMI-8226 leukemia
SF-268 CNS = tested on: SF-268 CNS
M14 melanoma = tested on: M14 melanoma
MOLT-4 leukemia = tested on: MOLT-4 leukemia
BT-549 breast = tested on: BT-549 breast
MALME-3M melanoma = tested on: MALME-3M melanoma
MDA-MB-231 breast = tested on: MDA-MB-231 breast
EKVX NSCLC = tested on: EKVX NSCLC
ACHN renal = tested on: ACHN renal
SF-295 CNS = tested on: SF-295 CNS
SR leukemia = tested on: SR leukemia
DU-145 prostate = tested on: DU-145 prostate
SNB-19 CNS = tested on: SNB-19 CNS
COLO 205 colon = tested on: COLO 205 colon
U251 CNS = tested on: U251 CNS
TK-10 renal = tested on: TK-10 renal
NCI-H226 lung = tested on: NCI-H226 lung
SN12C renal = tested on: SN12C renal
HL-60(TB) leukemia = tested on: HL-60(TB) leukemia
SK-OV-3 ovarian = tested on: SK-OV-3 ovarian
NCI-H522 lung = tested on: NCI-H522 lung
SK-MEL-5 melanoma = tested on: SK-MEL-5 melanoma
HT29 colon = tested on: HT29 colon
SW-620 colon = tested on: SW-620 colon
OVCAR-8 ovarian = tested on: OVCAR-8 ovarian
KM12 colon = tested on: KM12 colon
PC-3 prostate = tested on: PC-3 prostate
SF-539 CNS = tested on: SF-539 CNS
SK-MEL-2 melanoma = tested on: SK-MEL-2 melanoma
K-562 leukemia = tested on: K-562 leukemia
MCF7 breast = tested on: MCF7 breast
A549 NSCLC = tested on: A549 NSCLC
NCI-H460 lung = tested on: NCI-H460 lung
HCC-2998 colon = tested on: HCC-2998 colon
A498 renal = tested on: A498 renal
RXF 393 renal = tested on: RXF 393 renal
SK-MEL-28 melanoma = tested on: SK-MEL-28 melanoma
NCI-H23 lung = tested on: NCI-H23 lung
HCT-15 colon = tested on: HCT-15 colon
IGROV1 ovarian = tested on: IGROV1 ovarian
786-0 renal = tested on: 786-0 renal
CAKI-1 renal = tested on: CAKI-1 renal
UACC-62 melanoma = tested on: UACC-62 melanoma
NCI/ADR-RES ovarian = tested on: NCI/ADR-RES ovarian
CCRF-CEM leukemia = tested on: CCRF-CEM leukemia
DMS 273 small cell lung = tested on: DMS 273 small cell lung
LXFL 529 NSCLC = tested on: LXFL 529 NSCLC
DMS 114 small cell lung = tested on: DMS 114 small cell lung
M19-MEL melanoma = tested on: M19-MEL melanoma
UO-31 renal = tested on: UO-31 renal
DLD-1 colon = tested on: DLD-1 colon
KM20L2 colon = tested on: KM20L2 colon
XF 498 CNS = tested on: XF 498 CNS

O=[N+]([O-])c1cc(F)ccc1S(=O)(=O)c1ccccc1
TGI (MDA-MB-435): > 10 µM | TGI (T-47D breast): > 10 µM | TGI (LOX IMVI melanoma): > 10 µM | TGI (HS 578T breast): > 10 µM | TGI (OVCAR-5 ovarian): > 10 µM | TGI (OVCAR-3 ovarian): > 10 µM | TGI (SNB-75 CNS): > 10 µM | TGI (MDA-N): > 10 µM | TGI (HOP-62 NSCLC): > 10 µM | TGI (HOP-92 NSCLC): > 10 µM | TGI (OVCAR-4 ovarian): > 10 µM | TGI (UACC-257 melanoma): > 10 µM | TGI (HCT-116 colon): > 10 µM | TGI (RPMI-8226 leukemia): > 10 µM | TGI (SF-268 CNS): > 10 µM | TGI (M14 melanoma): > 10 µM | TGI (MOLT-4 leukemia): > 10 µM | TGI (BT-549 breast): > 10 µM | TGI (MALME-3M melanoma): > 10 µM | TGI (MDA-MB-231 breast): > 10 µM | TGI (EKVX NSCLC): > 10 µM | TGI (ACHN renal): > 10 µM | TGI (SF-295 CNS): > 10 µM | TGI (SR leukemia): > 10 µM | TGI (DU-145 prostate): > 10 µM | TGI (SNB-19 CNS): > 10 µM | TGI (COLO 205 colon): > 10 µM | TGI (U251 CNS): > 10 µM | TGI (TK-10 renal): > 10 µM | TGI (NCI-H226 lung): > 10 µM | TGI (SN12C renal): > 10 µM | TGI (HL-60(TB) leukemia): > 10 µM | TGI (SK-OV-3 ovarian): > 10 µM | TGI (NCI-H522 lung): 5.34 µM | TGI (SK-MEL-5 melanoma): > 10 µM | TGI (HT29 colon): > 10 µM | TGI (SW-620 colon): > 10 µM | TGI (OVCAR-8 ovarian): > 10 µM | TGI (KM12 colon): > 10 µM | TGI (PC-3 prostate): > 10 µM | TGI (SF-539 CNS): > 10 µM | TGI (SK-MEL-2 melanoma): > 10 µM | TGI (K-562 leukemia): > 10 µM | TGI (MCF7 breast): > 10 µM | TGI (A549 NSCLC): > 10 µM | TGI (NCI-H460 lung): > 10 µM | TGI (HCC-2998 colon): > 10 µM | TGI (A498 renal): > 10 µM | TGI (RXF 393 renal): > 10 µM | TGI (SK-MEL-28 melanoma): > 10 µM | TGI (NCI-H23 lung): > 10 µM | TGI (HCT-15 colon): > 10 µM | TGI (IGROV1 ovarian): > 10 µM | TGI (786-0 renal): > 10 µM | TGI (CAKI-1 renal): > 10 µM | TGI (UACC-62 melanoma): > 10 µM | TGI (NCI/ADR-RES ovarian): > 10 µM | TGI (CCRF-CEM leukemia): > 10 µM

Cc1ccc(S(=O)(=O)C2=c3nc4ccccc4cc3=C3C(=O)c4ccccc4C(=O)C32)cc1 (stereo unspecified)
TGI (LOX IMVI melanoma): > 100 µM | TGI (OVCAR-5 ovarian): > 100 µM | TGI (OVCAR-3 ovarian): > 100 µM | TGI (SNB-75 CNS): > 100 µM | TGI (HOP-62 NSCLC): > 100 µM | TGI (HOP-92 NSCLC): > 100 µM | TGI (OVCAR-4 ovarian): > 100 µM | TGI (UACC-257 melanoma): > 100 µM | TGI (HCT-116 colon): > 100 µM | TGI (DMS 273 small cell lung): > 100 µM | TGI (RPMI-8226 leukemia): > 100 µM | TGI (SF-268 CNS): > 100 µM | TGI (M14 melanoma): > 100 µM | TGI (MOLT-4 leukemia): > 100 µM | TGI (LXFL 529 NSCLC): > 100 µM | TGI (MALME-3M melanoma): > 100 µM | TGI (EKVX NSCLC): > 100 µM | TGI (ACHN renal): > 100 µM | TGI (SR leukemia): > 100 µM | TGI (SNB-19 CNS): > 100 µM | TGI (COLO 205 colon): > 100 µM | TGI (U251 CNS): > 100 µM | TGI (TK-10 renal): > 100 µM | TGI (NCI-H226 lung): > 100 µM | TGI (SN12C renal): > 100 µM | TGI (HL-60(TB) leukemia): > 100 µM | TGI (DMS 114 small cell lung): > 100 µM | TGI (SK-OV-3 ovarian): > 100 µM | TGI (NCI-H522 lung): > 100 µM | TGI (SK-MEL-5 melanoma): > 100 µM | TGI (M19-MEL melanoma): > 100 µM | TGI (SW-620 colon): > 100 µM | TGI (UO-31 renal): > 100 µM | TGI (OVCAR-8 ovarian): > 100 µM | TGI (KM12 colon): > 100 µM | TGI (SF-539 CNS): > 100 µM | TGI (SK-MEL-2 melanoma): > 100 µM | TGI (K-562 leukemia): > 100 µM | TGI (DLD-1 colon): > 100 µM | TGI (A549 NSCLC): > 100 µM | TGI (NCI-H460 lung): > 100 µM | TGI (HCC-2998 colon): > 100 µM | TGI (KM20L2 colon): > 100 µM | TGI (A498 renal): > 100 µM | TGI (SK-MEL-28 melanoma): > 100 µM | TGI (NCI-H23 lung): > 100 µM | TGI (HCT-15 colon): > 100 µM | TGI (IGROV1 ovarian): > 100 µM | TGI (786-0 renal): > 100 µM | TGI (XF 498 CNS): > 100 µM | TGI (CAKI-1 renal): > 100 µM | TGI (UACC-62 melanoma): > 100 µM | TGI (CCRF-CEM leukemia): > 100 µM
